Data as given in patent US20070111261A1, “Antigens” (priority 2001, published 2007).
“Also recorded” adds a separate entry of the source.

Legend:
[1] = tested on: mouse anti-HPV16 E7 mAb ED17; assay: Dot immunoassay with anti-HPV16 E7 mAb ED17; format: binding; conditions: for Linear determinant recognized by mAb ED17 (epitope mapping): dot immunoassays using 6-mer peptides offset by one residue; for Binding to mAb ED17 in dot immunoassay: 15-mer peptide spotted on membrane, primary antibody 1:500
Method: The peptides corresponding to the three peptide sequences were synthetized and used as antigens in dot immunoassay experiments with MAb-ED17, a mouse monoclonal IgG, raised to the full length E7 oncoprotein. Peptide purity was controlled by analytical HPLC, and the molecular mass of purified peptides confirmed by fast atomic bombardment mass spectrometry. Peptides were dissolved in 0.9% NaCl, aliquoted and stored at −20° C.
Nitrocellulose membranes (Nytran […] pore size, Schleicher & Schüll) were pretreated for 1 min in 4% BSA (bovine serum albumin)/10 mM Tris-HCl, pH 7.5/150 mM NaCl, followed by 10 min activation with 2.5% glutaraldehyde. Peptides (5 Φg) were spotted on the activated membrane, left to dry for 1 hr at room temperature, and probed in phosphate-buffered saline (PBS) containing 4% BSA, 0.1% (v/v) Tween 20, and the primary antibody (1:500). Primary antibody was mouse anti-HPV16 E7 monoclonal IgG1 raised to amino acids 1-98 representing full length E7 (ED17, cat # sc-6981, Santa Cruz Biotechnology, Inc., Santa Cruz, Calif.). Following a 1 h incubation at room temperature, the membrane was washed three times for 10 mins with PBS containing 4% BSA, 0.1% Tween-20 and incubated with horseradish peroxidase-conjugated affinity-purified sheep anti-mouse IgG for 1 h (1:2500; Santa Cruz Biotechnology). Membrane was washed in PBS (4 times for 5 mins), and immunoblots were developed using the enhanced chemiluminescence detection assay (ECL Western blotting analysis system, Amersham Pharmacia Biotech, Milan, Italy).
The identification of the H2-E^k presented HPV 16 E7 epitope was further ananyzed by epitope mapping. Dot immunoassays by using 6-mer peptides offset by one amino acid residue confirmed that the anti-E7 mAb recognized the linear determinant HPV 16 E52-61 YNIVTFCCKC (SEQ ID NO:108) present in the 15-mer peptide RAHYNIVTFCCKCDS (SEQ ID NO:61), having the highest binding potential to the mouse MHC II molecule, and a low degree of similarity to host proteins.
Four peptides were analyzed for epitopic determinants in dot immunoassay tests: E725-39 YEQLNDSSEEEDEID (control; SEQ ID NO:76); E784-98 MGTLGIVCPICSQKP (SEQ ID NO:71); E72-16 HGDTPTLHEYMLDLQ (SEQ ID No:69); E749-63 RAHYNIVTFCCKCDS (SEQ ID NO:61); and E732-46 SEEEDEIDGPAGQAE (SEQ ID NO:39). […] As expected, high similarity peptide E732-46 SEEEDEIDGPAGQAE (SEQ ID NO:39) was not reactive (FIG. 1, peptide 5).
E749-63 RAHYNIVTFCCKCDS (SEQ ID NO:61) was further analyzed by epitope mapping.

[2] = tested on: HPV-transformed tumor cells; conditions: mice; cited from earlier work
MAb-ED17 = assay: NMR spectra confirming epitope screening; format: binding, mouse
Excerpt: To confirm the epitope screening results, NMR spectra were obtained that confirmed the high affinity of MAb-ED17 towards the predicted epitopic peptide RAHYNIVTFCCKCDS (SEQ ID NO:61).

With AHYNIVTFCCKC the “Linear determinant recognized by mAb ED17 (epitope mapping)” value [1] was “recognized”.

In the case of “HGDTPTLHEYMLDLQ (listed as Human papillomavirus)”, the “Binding to mAb ED17 in dot immunoassay” value [1] is reported as “not recognized; also recorded: No immune reaction”.

For “HPV E744-62 peptide: polypeptide comprising amino acids 44-62 of HPV E7 protein (QAEPDRAHYNIVTFCCKCD; UniProt P03129 44-62, looked up, fragment)”, the “Prevention of outgrowth of HPV-transformed tumor cells” value [2] is listed as “effective for preventing outgrowth”.

With “MGTLGIVCPICSQKP (listed as Human papillomavirus)” the “Binding to mAb ED17 in dot immunoassay” value [1] was “not recognized”.

With “RAHYNIVTFCCKCDS (listed as Human papillomavirus)” the “Affinity of MAb-ED17 towards peptide by NMR spectra” value (MAb-ED17) was “high affinity” and the “Binding to mAb ED17 in dot immunoassay” value [1] was “Significant binding; also recorded: significant signal”.

For “SEEEDEIDGPAGQAE (listed as Human papillomavirus)”, the “Binding to mAb ED17 in dot immunoassay” value [1] was “not reactive”.

In the case of “YEQLNDSSEEEDEID (listed as Human papillomavirus)”, the “Binding to mAb ED17 in dot immunoassay” value [1] is reported as “no binding”.

In the case of “YNIVTFCCKC (listed as Human papillomavirus)”, the “Linear determinant recognized by mAb ED17 (epitope mapping)” value [1] is reported as “recognized”.
